{
  "source": "patent US20160067347A1",
  "about": "“APJ RECEPTOR AGONISTS AND USES THEREOF” (AMGEN INC., priority 2012, published 2016)",
  "key": {"[1]": {"assay": "In vitro plasma stability of apelin peptides (Table 15; plasma species not given)", "assay_type": "in vitro ADME", "details": "5 μM in plasma, 37° C.", "source_text": "(metabolite data not shown)."}, "[2]": {"details": "background statement; cited from earlier work"}, "in vitro": {"assay": "in vitro", "details": "rat, plasma", "protocol": "Apelin peptides were spiked into freshly prepared mouse, rat, dog and human EDTA plasma to a final concentration of 5 μM. The plasma samples were then incubated at 37° C. over a period of 4 hr. Up to 8 time points were sampled to facilitate estimation of in vitro half life in plasma matrices. In a typical experiment, aliquot of 100 μL of plasma sample was taken from the incubation vial, followed by addition of 300 μL of MeOH containing internal standard. The quenched sample was centrifuged at 5500 g for 15 min after 15 min vortex in room temperature. The supernatant was then analyzed by high resolution LC-MS."}},
  "data": [
    {"smiles": "CSCC[C@H](NC(=O)[C@@H]1CCCN1C(=O)CNC(=O)[C@H](CCCCN)NC(=O)[C@H](Cc1cnc[nH]1)NC(=O)[C@H](CO)NC(=O)[C@H](CC(C)C)NC(=O)[C@H](CCCNC(=N)N)NC(=O)[C@@H]1CCCN1C(=O)[C@H](CCCNC(=N)N)NC(=O)[C@@H](N)CCC(N)=O)C(=O)N1CCC[C@H]1C(=O)N[C@@H](Cc1ccccc1)C(=O)O", "note": "[Apelin-13]", "values": [
      {"measurement": "in vitro plasma stability, % at 15 minutes", "setting": "[1]", "result": 0.1, "unit": "%"},
      {"measurement": "plasma half-life", "setting": "[2]", "result": "< 5", "unit": "min"},
      {"measurement": "remaining at 0.25 h, 5 μM", "setting": "in vitro", "result": 0.1, "unit": "%"}
    ]}
  ]
}
